Results as given in US8653285B2 (Nippon Zoki Pharmaceutical Co., Ltd., priority 2008, dated 2014).
Structures can show the parent of a compound that is named as a salt. Where two headings read alike, the source gives them in different places.

Key:
[1] = target: human histamine H1 receptor (Homo sapiens, UniProt P35367); assay: In vitro human histamine H1 receptor binding experiment ([3H]pyrilamine, HEK293A cells stably expressing the receptor); settings: [3H]pyrilamine 3 nmol/L, room temperature 60 minutes
Description: Recombinant human histamine H1 receptor plasmid (prepared by Invitrogen) was transfected to HEK293A cells with Lipofectamine 2000 (Invitrogen). Cells stably expressing human histamine H1 receptor were screened with Geneticin (Invitrogen). The cells were continued to be cultured using a Dulbecco's Modified Eagle Medium containing 10% fetal bovine serum, 0.1 mmol/L MEM Non-Essential Amino Acids Solution, 2 mmol/L L-glutamine and 0.7 mg/mL Geneticin in a 5% CO2 incubator at 37° C. The cells stably expressing human histamine H1 receptor were prepared using 50 mmol/L Tris-HCl (pH 7.5) (hereinafter referred to as buffer) containing 0.1% bovine serum albumin, so as to have a concentration of 3×10^6 cells/mL, to give a cell sample preparation. Fifty microliters of the buffer, 50 μL of a test substance solution at various concentrations, and 50 μL of [^3H]pyrilamine solution (final concentration: 3 nmol/L) were added to each of the wells on the 96-well plate, and stirred, and 100 μL of the cell sample preparation was then added thereto (at a concentration of 3×10^5 cells/well) to initiate the reaction.
The cells were incubated at room temperature for 60 minutes, and then filtered on UniFilter GF/C plate (Packard) immersed in 0.5% polyethyleneimine using a cell harvester (IH-110, INNOTECH CORPORATION), to stop the reaction, and the plate was washed with the buffer. The plate after washing was sufficiently dried, and 20 μL of a scintillator (MaxiLight, manufactured by Hidex) was added thereto, and count per minute (cpm) was measured with a multi-labeled microplate reader (Plate Chameleo II, Hidex). The nonspecific binding was cpm in a case where 30 μmol/L pyrilamine was added. The experiments were carried out at n=3, and at least repeated 3 times.

[2] = tested on: histamine-induced vascular hyperpermeability; assay: Rat histamine-induced vascular hyperpermeability reaction (in vivo antihistamine action); settings: SD male rat, oral administration, histamine injected intracutaneously 1 hour after administration, leaked Evans Blue; read-out: ED50
Description: An SD male rat (SPF) of 180 g in weight was previously fed for one week or more by allowing the rat to take a solid feed and tap water ad libitum, under the environment setting of a temperature of 22° C., humidity of 55% and an artificial illumination of 12 hours a day (light phase 8 am to 8 pm), and the rat was fasted overnight to be used for the experiment. Histamine.dihydrochloride (hereinafter referred to as histamine) and Evans Blue were used by dissolving each in physiological saline upon use. A substance to be tested was dissolved in water for injection or suspended in 0.5% carboxymethyl cellulose sodium, and the rat was orally administered with the solution or suspension (dose volume: 5 mL/kg body weight). After 1 hour from the administration, the physiological saline and the histamine solution were each intracutaneously injected to two locations (20 μg/0.05 ml/location) each on a back part of the rat of which hair was sheared with an electric clipper while anesthetizing with an ether. A 0.5% Evans Blue-containing physiological saline was injected into the tail vein of the rat (1 mL/200 g body weight) immediately before the intracutaneous injection of the histamine.
After 30 minutes, the animal was decapitated, and exsanguinated, and the skin was removed to measure an amount of leaked pigment in the blue-stained portion. The measurement of the amount of leaked pigment was carried out as follows. Skins of the pigment leaking site were cut out at two locations, 1 mL of a 2 mol/L aqueous potassium hydroxide solution was added thereto in a test tube, and the test tube was allowed to stand overnight at 37° C. to dissolve. Thereafter, 6 mL of a 1:3 mixed solution of 0.67 mol/L phosphoric acid and acetone was added to the solution, and the mixture was vigorously shaken for 10 minutes. Thereafter, the mixture was filtered, and the absorbance of the filtrate at 620 nm was measured. The absorbance obtained from the two locations of the sites injected with physiological saline, as blank value, was used for a compensation. The amount of leaked pigment was calculated from the calibration curve of Evans Blue at 620 nm.

[3] = target: T1, cerebral H1 receptor (Mus musculus, UniProt P70174); assay: Murine cerebral H1 receptor occupying content (ex vivo, 3H-pyrilamine binding in brain homogenate after oral administration)
T1 construct: The excised brain tissue was homogenized with Polytron (Kinematica); from tissue; host or cells: ICR mouse brain (entire brain except cerebellum and medulla oblongata), homogenate
Description: A 6-week-old ICR male mouse was previously fed for one week or more by allowing the mouse to take a solid feed and tap water ad libitum, under the environment setting of a temperature of 22° C., humidity of 55% and an artificial illumination of 12 hours a day, and the mouse was fasted overnight to be used for the experiment. A substance to be tested was dissolved with water for injection or suspended in 0.5% carboxymethyl cellulose solution, and the solution or suspension was orally administered to the mouse (dose volume: 0.1 mL/10 g body weight). After 1 hour from the oral administration, the mouse was decapitated, and the entire brain, except for cerebellum and medulla oblongatae, was rapidly excised. The excised brain tissue was homogenized with Polytron (Kinematica) in an ice-cooled 50 mmol/L phosphate buffered saline (pH 7.4, 100 mg/1.9 mL).
To a test tube for reaction (TPX-Tube) were added 180 μL of the brain homogenate, and 10 μL of ^3H-pyrilamine solution (final concentration: 2 nmol/L) and 10 μL of a non-labeled pyrilamine solution (final concentration: 200 μmol/L) or a 50 mmol/L phosphate buffered saline, and the mixture was incubated at room temperature for 45 minutes, and 2.0 mL of an ice-cooled, 50 mmol/L phosphate buffered saline was then added thereto to stop the reaction. The reaction mixture was filtered with a GF/B filter ([…]), and the filtrate was placed in a vial and dried overnight at 60 degrees. After drying, 10 mL of a scintillator (AL-1, toluene-based, DOJINDO LABORATORIES) was added to the product, and the disintegration per minute (dpm) was measured with a liquid scintillation counter (Packard, U.S.A., TRI-CARB 2700TR) (5 minutes/vial).

[4] = ICR male mouse, oral administration, brain excised after 1 hour, larger ID50 = lower brain transfer, read-out: ID50 (the source's name)

human histamine H1 receptor, sequence (P35367 whole entry): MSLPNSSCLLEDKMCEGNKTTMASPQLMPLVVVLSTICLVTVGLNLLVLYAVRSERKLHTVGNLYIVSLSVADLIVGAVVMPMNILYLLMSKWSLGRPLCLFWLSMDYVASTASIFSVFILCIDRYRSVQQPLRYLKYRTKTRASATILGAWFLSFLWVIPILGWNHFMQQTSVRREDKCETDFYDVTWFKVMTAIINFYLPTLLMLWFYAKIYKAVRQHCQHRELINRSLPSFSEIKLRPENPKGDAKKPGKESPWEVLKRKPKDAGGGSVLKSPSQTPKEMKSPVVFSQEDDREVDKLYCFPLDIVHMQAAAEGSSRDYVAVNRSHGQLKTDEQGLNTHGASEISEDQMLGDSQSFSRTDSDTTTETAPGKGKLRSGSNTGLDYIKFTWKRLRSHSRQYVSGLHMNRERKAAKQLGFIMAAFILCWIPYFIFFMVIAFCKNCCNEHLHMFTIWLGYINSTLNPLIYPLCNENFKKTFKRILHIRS
T1 sequence (P70174 whole entry): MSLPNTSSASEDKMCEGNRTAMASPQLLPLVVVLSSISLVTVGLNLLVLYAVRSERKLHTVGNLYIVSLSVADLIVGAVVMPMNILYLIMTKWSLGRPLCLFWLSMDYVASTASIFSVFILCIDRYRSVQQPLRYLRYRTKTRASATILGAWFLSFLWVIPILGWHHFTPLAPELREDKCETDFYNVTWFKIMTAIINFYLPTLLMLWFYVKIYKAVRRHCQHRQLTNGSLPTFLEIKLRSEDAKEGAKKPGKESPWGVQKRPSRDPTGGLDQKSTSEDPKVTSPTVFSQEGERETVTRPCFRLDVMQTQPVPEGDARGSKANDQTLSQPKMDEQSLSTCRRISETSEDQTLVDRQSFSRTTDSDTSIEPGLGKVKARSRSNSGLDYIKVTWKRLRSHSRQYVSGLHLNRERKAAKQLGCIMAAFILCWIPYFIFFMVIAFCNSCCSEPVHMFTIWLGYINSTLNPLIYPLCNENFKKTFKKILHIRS

Compound | IC50 [1] [nM] | ED50 [3, 4] [mg/kg] | ED50 [2] [mg/kg] | ED50 ([3]; mouse, po, 1 h, read-out: ID50) [mg/kg]
CN(C)CC/C=C1\c2cc(CC(=O)O)ccc2OCc2ccsc21 [Compound 19, (E)-[4-(3-Dimethylaminopropylidene)-4,10-dihydro-9-oxa-3-thiabenzo[f]azulen-6-yl]acetic acid] | 56.9 | 6.08 | 0.24 | –
CN(C)CCC=C1c2cc(C(C)(C)C(=O)O)ccc2OCc2ccsc21 [Compound 22, (E,Z)-2-[4-(3-Dimethylaminopropylidene)-4,10-dihydro-9-oxa-3-thiabenzo[f]azulen-6-yl]-2-methylpropionic acid] | 60 | 18.7 | ~1 | –
O=C(O)Cc1ccc2c(c1)/C(=C\CCN1CCCC1)c1sccc1CO2 [Compound 26, (E)-{4-[3-(Pyrrolidin-1-yl)propylidene]-4,10-dihydro-9-oxa-3-thiabenzo[f]azulen-6-yl}acetic acid] | 19.2 | 80.9 | 0.156 | –
O=C(O)Cc1ccc2c(c1)/C(=C/CCN1CCCC1)c1sccc1CO2 [Compound 27, (Z)-{4-[3-(Pyrrolidin-1-yl)propylidene]-4,10-dihydro-9-oxa-3-thiabenzo[f]azulen-6-yl}acetic acid] | 70.2 | > 200 | 0.226 | –
CCN(C)CC/C=C1\c2cc(CC(=O)O)ccc2OCc2ccsc21 [Compound 30] | 57.6 | – | ~0.3 | 95
CN(C)CC/C=C1/c2cc(CCC(=O)O)ccc2OCc2sccc21.Cl [Compound 57, (Z)-3-[4-(3-Dimethylaminopropylidene)-4,10-dihydro-9-oxa-1-thiabenzo[f]azulen-6-yl]propionic acid hydrochloride] | 56.3 | – | ~0.1 | > 80
Cl.O=C(O)Cc1ccc2c(c1)/C(=C\CCN1CCCC1)c1sccc1CO2 [Compound 70, (E)-{4-[3-(Pyrrolidin-1-yl)propylidene]-4,10-dihydro-9-oxa-3-thiabenzo[f]azulen-6-yl}acetic acid hydrochloride] | 14.3 | – | 0.42 | 51.4
Cl.O=C(O)Cc1ccc2c(c1)/C(=C/CCN1CCCC1)c1sccc1CO2 [Compound 71, (Z)-{4-[3-(Pyrrolidin-1-yl)propylidene]-4,10-dihydro-9-oxa-3-thiabenzo[f]azulen-6-yl}acetic acid hydrochloride] | 63.4 | – | 0.83 | > 80

Now from value to molecule, other results behind:

IC50 [1] [nM] | ED50 [3, 4] [mg/kg] | Compound | ED50 [2] [mg/kg] | ED50 ([3]; mouse, po, 1 h, read-out: ID50) [mg/kg]
13.2 | 174 | CCOC(=O)C(C)(C)c1cc2c(s1)C(=O)Cc1ccccc1C2=CCCN(C)C [Compound 24, Ethyl (E,Z)-2-[4-(3-dimethylaminopropylidene)-10-oxo-9,10-dihydro-4H-1-thiabenzo[f]azulen-2-yl]-2-methylpropionate hydrochloride] | ~1 | –
43.4 | 5.85 | CN(C)CC/C=C1/c2cc(CC(=O)O)ccc2OCc2sccc21 [Compound 28, (Z)-[4-(3-Dimethylaminopropylidene)-4,10-dihydro-9-oxa-1-thiabenzo[f]azulen-6-yl]acetic acid] | < 0.1 | –
70.7 | 23.7 | CN(C)CC/C=C1\c2cc(CC(=O)O)ccc2OCc2sccc21 [Compound 29, (E)-[4-(3-Dimethylaminopropylidene)-4,10-dihydro-9-oxa-1-thiabenzo[f]azulen-6-yl]acetic acid] | < 0.1 | –
31.4 | 34.8 | O=C(O)Cc1ccc2c(c1)/C(=C\CCN1CCCCC1)c1sccc1CO2 [Compound 34, (E)-{4-[3-(Piperidin-1-yl)propylidene]-4,10-dihydro-9-oxa-3-thiabenzo[f]azulen-6-yl}acetic Acid] | ~0.3 | –
– | > 80 | O=C(O)Cc1ccc2c(c1)/C(=C/CCNCc1ccccc1)c1sccc1CO2 [Compound 43, (Z)-[4-(3-Benzylaminopropylidene)-4,10-dihydro-9-oxa-3-thiabenzo[f]azulen-6-yl]acetic acid] | 1.31 | –
89.1 | > 80 | CN1CCN(CC/C=C2\c3cc(CC(=O)O)ccc3OCc3ccsc32)CC1 [Compound 50, (E)-{4-[3-(4-Methylpiperadin-1-yl)propylidene]-4,10-dihydro-9-oxa-3-thiabenzo[f]azulen-6-yl}acetic acid] | 1.34 | –
23 | 110 | O=C(O)CCc1ccc2c(c1)/C(=C\CCN1CCCC1)c1ccsc1CO2 [Compound 58, (E)-3-{4-[3-(Pyrrolidin-1-yl)propylidene]-4,10-dihydro-9-oxa-1-thiabenzo[f]azulen-6-yl}propionic acid] | ~0.1 | –
36 | > 200 | O=C(O)CCc1ccc2c(c1)/C(=C/CCN1CCCC1)c1ccsc1CO2 [Compound 59, (Z)-3-{4-[3-(Pyrrolidin-1-yl)propylidene]-4,10-dihydro-9-oxa-1-thiabenzo[f]azulen-6-yl}propionic acid] | ~0.3 | –
